Measured values from DBAASP.
Values after ≈ are worked out from the molar mass of the structure shown.

Tests used:
Assay in all cases: ≥ marks a high value that may be exact or a test limit, other limits are often not marked, values filed in µg/mL are converted to µM
[1] = test system: Candida albicans ATCC 10231
[2] = test system: Pseudomonas aeruginosa ATCC 27853
[3] = test system: Staphylococcus aureus ATCC 29213
[4] = test system: Enterococcus faecalis ATCC 29212
[5] = test system: Aspergillus brasiliensis ATCC 16404
[6] = test system: Escherichia coli ATCC 25922
Staphylococcus aureus = test system: Staphylococcus aureus
Streptococcus sanguinis = test system: Streptococcus sanguinis
Escherichia coli C600 = test system: Escherichia coli C600
[7] = test system: Staphylococcus aureus 209P
[8] = test system: Bacillus subtilis VKM B-501
[9] = test system: Salmonella enterica subsp. enterica serovar Typhimurium ATCC 14028
[10] = test system: Bacillus cereus ATCC 10876
[11] = test system: Streptococcus iniae KCTC 3657
[12] = test system: Klebsiella pneumoniae ATCC 700603
[13] = test system: Escherichia coli BW25113 ΔsbmA
[14] = test system: Staphylococcus aureus ATCC 25923
Escherichia coli BW25113 = test system: Escherichia coli BW25113
[15] = test system: Acinetobacter baumannii ATCC 19606
[16] = test system: Staphylococcus pseudintermedius
Pseudomonas aeruginosa = test system: Pseudomonas aeruginosa
[17] = test system: Salmonella typhimurium CCARM 8007
[18] = test system: Escherichia coli CCARM 1229
[19] = test system: Staphylococcus aureus CCARM 3126
[20] = test system: Pseudomonas aeruginosa CCARM 2002
[21] = test system: Bacillus subtilis KCTC 3068
[22] = test system: Acinetobacter baumannii CCARM 12035
[23] = test system: Escherichia coli KCTC 1682
[24] = test system: Pseudomonas aeruginosa KCTC 2004
[25] = test system: Salmonella typhimurium KCTC 1926
[26] = test system: Acinetobacter baumannii KCTC 2508
[27] = test system: Staphylococcus epidermidis KCTC 1917
[28] = test system: Staphylococcus aureus KCTC 1621

CC[C@H](C)[C@H](NC(=O)[C@H](CCCCN)NC(=O)CNC(=O)[C@@H]1CCCN1C(=O)[C@H](Cc1cnc[nH]1)NC(=O)[C@H](CC(C)C)NC(=O)[C@H](CC(C)C)NC(=O)[C@H](Cc1ccc(O)cc1)NC(=O)[C@H](CO)NC(=O)CNC(=O)[C@H](Cc1ccc(O)cc1)NC(=O)[C@H](CC(C)C)NC(=O)[C@H](CO)NC(=O)[C@@H](N)CS)C(=O)N[C@@H](CO)C(=O)N[C@@H](Cc1ccc(O)cc1)C(=O)N[C@@H](CO)C(=O)N[C@@H](CC(C)C)C(=O)N[C@@H](Cc1cnc[nH]1)C(=O)N[C@@H](CS)C(=O)N[C@@H](CO)C(=O)N[C@@H](CCCN=C(N)N)C(=O)O [CSLYGSYLLHPGKISYSLHCSR]
MIC [1]: 32 µM (≈ 79.5 µg/mL)
MIC [2]: 64 µM (≈ 159 µg/mL)
MIC [3]: 32 µM (≈ 79.5 µg/mL)
MIC [4]: 16 µM (≈ 39.8 µg/mL)
MIC [5]: ≥ 64 µM
MIC [6]: 16 µM (≈ 39.8 µg/mL)

CC[C@H](C)[C@H](NC(=O)[C@H](Cc1ccccc1)NC(=O)[C@@H](N)Cc1ccccc1)C(=O)N[C@@H](Cc1ccccc1)C(=O)N[C@@H](Cc1ccccc1)C(=O)N[C@@H](Cc1ccccc1)C(N)=O [FFIFFF]
MIC (Staphylococcus aureus): 14.8 µM (≈ 12.8 µg/mL)
MIC (Streptococcus sanguinis): ≥ 32.6 µM

CC[C@H](C)[C@H](NC(=O)[C@H](C)NC(=O)[C@H](CCCCN)NC(=O)[C@H](CCCN=C(N)N)NC(=O)CNC(=O)[C@H](Cc1ccccc1)NC(=O)[C@H](CCCCN)NC(=O)[C@H](CCCCN)NC(=O)[C@@H](NC(=O)[C@H](CC(C)C)NC(=O)[C@H](CCCCN)NC(=O)CN)[C@@H](C)CC)C(=O)N[C@@H](CO)C(=O)N[C@@H](Cc1ccc(O)cc1)C(=O)N[C@@H](C)C(=O)N[C@H](C(=O)N[C@@H](CCCCN)C(=O)N[C@@H](CCCCN)C(=O)N[C@@H](C)C(=O)N[C@@H](CCCN=C(N)N)C(=O)NCC(=O)N[C@@H](CCCCN)C(=O)N[C@@H](Cc1cnc[nH]1)C(=O)O)C(C)C [GKLIKKFGRKAISYAVKKARGKH]
MIC (Escherichia coli C600): 6 µM (≈ 15.5 µg/mL)
MIC [7]: ≥ 36 µM
MIC [8]: 0.7 µM (≈ 1.81 µg/mL)

CSCC[C@H](NC(=O)[C@H](Cc1ccccc1)NC(=O)[C@H](CCCCN)NC(=O)[C@H](CCCN=C(N)N)NC(=O)[C@H](Cc1ccccc1)NC(=O)CNC(=O)[C@H](CC(N)=O)NC(=O)[C@H](CCCN=C(N)N)NC(=O)[C@H](CCCCN)NC(=O)[C@@H](NC(=O)[C@H](CCCN=C(N)N)NC(=O)[C@@H](N)Cc1cnc[nH]1)C(C)C)C(=O)N[C@@H](CCCN=C(N)N)C(=O)N[C@@H](CCCN=C(N)N)C(=O)N[C@@H](CC(C)C)C(=O)N[C@@H](CCCCN)C(=O)N[C@@H](CCCCN)C(=O)N[C@@H](Cc1ccccc1)C(=O)N[C@@H](Cc1ccccc1)C(=O)N[C@@H](C)C(=O)NCC(=O)NCC(=O)O [HRVKRNGFRKFMRRLKKFFAGG]
MIC [9]: 0.731 µM (≈ 2 µg/mL)
MIC [10]: 11.7 µM (≈ 32 µg/mL)
MIC [2]: 2.92 µM (≈ 8 µg/mL)
MIC [3]: > 46.8 µM
MIC [11]: 11.7 µM (≈ 32 µg/mL)
MIC [6]: 1.1 µM (≈ 3 µg/mL)

CC[C@H](C)[C@H](NC(=O)[C@@H]1CCCN1C(=O)[C@@H]1CCCN1C(=O)[C@H](CCCN=C(N)N)NC(=O)[C@H](Cc1ccccc1)NC(=O)[C@@H]1CCCN1C(=O)[C@@H]1CCCN1C(=O)[C@H](Cc1ccc(O)cc1)NC(=O)[C@H](Cc1ccccc1)NC(=O)[C@@H]1CCCN1C(=O)[C@@H]1CCCN1C(=O)[C@H](CCCN=C(N)N)NC(=O)[C@@H](NC(=O)[C@@H]1CCCN1C(=O)[C@@H]1CCCN1C(=O)[C@H](CCCN=C(N)N)NC(=O)[C@H](CCCN=C(N)N)NC(=O)[C@@H](NC(=O)[C@@H]1CCCN1C(=O)[C@@H]1CCCN1C(=O)[C@H](CCCN=C(N)N)NC(=O)[C@H](Cc1ccccc1)NC(=O)[C@@H](N)CCCN=C(N)N)[C@@H](C)CC)[C@@H](C)CC)C(=O)O [RFRPPIRRPPIRPPFYPPFRPPI]
MIC [12]: 32 µM (≈ 91.9 µg/mL)
MIC [13]: ≥ 32 µM
MIC [9]: 4 µM (≈ 11.5 µg/mL)
MIC [14]: > 64 µM
MIC [2]: 32 µM (≈ 91.9 µg/mL)
MIC (Escherichia coli BW25113): 2 µM (≈ 5.74 µg/mL)
MIC [15]: 1 µM (≈ 2.87 µg/mL)
MIC [6]: 2 µM (≈ 5.74 µg/mL)

CC(=O)N[C@@H](CCCN=C(N)N)C(=O)N[C@@H](CCCCN)C(=O)N[C@@H](Cc1ccccc1)C(=O)N[C@@H](CC(C)C)C(=O)N[C@@H](CCCN=C(N)N)C(=O)N[C@@H](CCCN=C(N)N)C(=O)N[C@@H](CCCN=C(N)N)C(=O)NCC(=O)N[C@@H](CCC(=O)O)C(=O)N[C@H](C(=O)N[C@@H](C)C(=O)N[C@@H](Cc1cnc[nH]1)C(=O)N[C@@H](Cc1ccccc1)C(=O)N[C@@H](CO)C(=O)N[C@@H](CCC(N)=O)C(=O)N[C@@H](CCCCN)C(=O)N[C@@H](CO)C(=O)N[C@@H](CC(C)C)C(=O)NCC(=O)N[C@@H](CC(C)C)C(=O)N[C@@H](Cc1ccc(O)cc1)C(=O)N[C@@H](CS)C(=O)N[C@@H](Cc1c[nH]c2ccccc12)C(=O)N[C@@H](Cc1c[nH]c2ccccc12)C(=O)N[C@@H](Cc1c[nH]c2ccccc12)C(N)=O)C(C)C [RKFLRRRGEVAHFSQKSLGLYCWWW]
MIC [16]: ≥ 39.9 µM
MIC [2]: 19.9 µM (≈ 64.8 µg/mL)
MIC [3]: 19.9 µM (≈ 64.8 µg/mL)
MIC (Pseudomonas aeruginosa): 39.9 µM (≈ 130 µg/mL)

CC[C@H](C)[C@H](NC(=O)[C@H](CCCCN)NC(=O)[C@H](Cc1c[nH]c2ccccc12)NC(=O)[C@@H](N)CCCN=C(N)N)C(=O)N[C@@H](Cc1ccccc1)C(=O)N[C@@H](CCCCN)C(=O)N[C@@H](CCCCN)C(=O)N[C@H](C(=O)N[C@H](C(=O)N[C@@H](CCCCN)C(=O)N[C@@H](CCCCN)C(=O)N[C@@H](Cc1c[nH]c2ccccc12)C(N)=O)C(C)C)C(C)C [RWKIFKKVVKKW]
MIC [17]: 8 µM (≈ 13.2 µg/mL)
MIC [18]: 8 µM (≈ 13.2 µg/mL)
MIC [19]: 8 µM (≈ 13.2 µg/mL)
MIC [20]: 8 µM (≈ 13.2 µg/mL)
MIC [21]: 8 µM (≈ 13.2 µg/mL)
MIC [22]: 4 µM (≈ 6.58 µg/mL)
MIC [23]: 4 µM (≈ 6.58 µg/mL)
MIC [24]: 4 µM (≈ 6.58 µg/mL)
MIC [25]: 8 µM (≈ 13.2 µg/mL)
MIC [26]: 4 µM (≈ 6.58 µg/mL)
MIC [27]: 8 µM (≈ 13.2 µg/mL)
MIC [28]: 4 µM (≈ 6.58 µg/mL)
